Values after ≈ are worked out from the molar mass of the structure shown. Where a name gives a salt, the structure may show the parent alone. Blank lines part the entries; values can stand above or below the compound they belong to.
How the values were obtained:
Format in all cases: physicochemical
[1] = 7-day stability testing of solid forms (HPLC purity, XRPD)
Description: About 10 mg of freebase Form I, HCl salt Form II, Succinate Form I and received HCl salt Form I were placed at 60° C./capped and 40° C./75% RH (open), respectively. Samples were prepared in duplicate for each condition. At day 0 and day 7, the samples were analyzed by HPLC and XRPD to check the purity and crystal form, respectively.

[2] = Longer term stability of HCl salt form II (HPLC, XRPD; 1 and 3 months)
Description: Samples were prepared in duplicate for each condition. At day 0 and at 1 month, and 3 months, the samples were analyzed by HPLC and XRPD to check the purity and crystal form, respectively.

[3] = Solubility testing in water, SGF, FaSSIF, FeSSIF at 37° C.; conditions: for Solubility / Solubility (mg/mL): 37° C.
Description: About 15 mg of sample was weighed into each sample vial and then 3.0 mL of water, simulated gastric fluid (SGF), Fasted State Simulated Intestinal Fluid (FaSSIF) or Fed State Simulated Intestinal Fluid (FeSSIF) media was added. Samples were prepared in triplicate for each media. The suspensions were kept shaking at 37° C. for up to 24 h. At 0.5, 2 and 24 h, suspensions were filtered and the filtrate was analyzed by HPLC.

[4] = 25° C.±2° C., 60% RH±5% RH, T1 month
[5] = 25° C.±2° C., 60% RH±5% RH, T3 month
[6] = 40° C.±2° C., 74% RH±5% RH, T1 month
[7] = 40° C.±2° C., 74% RH±5% RH, T3 month
[8] = FaSSIF (pH of media 6.5), 0.5 h
[9] = FeSSIF (pH of media 5.0), 0.5 h
[10] = pH of sample in FaSSIF (pH of media 6.5), 0.5 h
[11] = pH of sample in FaSSIF (pH of media 6.5), 2 h
[12] = pH of sample in FaSSIF (pH of media 6.5), 24 h
[13] = pH of sample in FeSSIF (pH of media 5.0), 0.5 h
[14] = pH of sample in FeSSIF (pH of media 5.0), 2 h
[15] = pH of sample in FeSSIF (pH of media 5.0), 24 h
[16] = pH of sample in SGF (pH of media 1.2), 0.5 h
[17] = pH of sample in SGF (pH of media 1.2), 2 h
[18] = pH of sample in SGF (pH of media 1.2), 24 h
[19] = pH of sample in Water (pH of media 7.9), 0.5 h
[20] = pH of sample in Water (pH of media 7.9), 2 h
[21] = pH of sample in Water (pH of media 7.9), 24 h

Purity (area %) ([1]; Day 0, HPLC, listed as HCI salt Form II): 98.65 area % | XRPD (crystal form) ([1]; Day 7, 40° C./75% RH (open)): No change | Purity (area %) ([1]; Day 7, 40° C./75% RH (open), HPLC, listed as HCI salt Form II): 98.48 area % | Decrease in purity versus Day 0 ([1]; Day 7, 40° C./75% RH (open), listed as HCI salt Form II): 0.2 area % | XRPD (crystal form) ([1]; Day 7, 60° C./capped): No change | Purity (area %) ([1]; Day 7, 60° C./capped, HPLC, listed as HCI salt Form II): 98.45 area % | Decrease in purity versus Day 0 ([1]; Day 7, 60° C./capped, listed as HCI salt Form II): 0.2 area % | Assay by HPLC (water and solvent free)(area) ([2]; 25° C.±2° C., 60% RH±5% RH, T0): 101.6% | Polymorphism by XRPD ([2]; 25° C.±2° C., 60% RH±5% RH, T0): Form II | Total impurities by HPLC ([2]; 25° C.±2° C., 60% RH±5% RH, T0): impurities: 1.0% | Water Content ([2]; 25° C.±2° C., 60% RH±5% RH, T0): 1.8% | Assay by HPLC (water and solvent free)(area) [2, 4]: 101.4% | Polymorphism by XRPD [2, 4]: Form II | Total impurities by HPLC [2, 4]: impurities: 1.1% | Water Content [2, 4]: 1.6% | Assay by HPLC (water and solvent free)(area) [2, 5]: 101.2% | Polymorphism by XRPD [2, 5]: Form II | Total impurities by HPLC [2, 5]: impurities: 1.0% | Water Content [2, 5]: 1.4% | Assay by HPLC (water and solvent free)(area) ([2]; 40° C.±2° C., 74% RH±5% RH, T0): 101.6% | Polymorphism by XRPD ([2]; 40° C.±2° C., 74% RH±5% RH, T0): Form II | Total impurities by HPLC ([2]; 40° C.±2° C., 74% RH±5% RH, T0): impurities: 1.0% | Water Content ([2]; 40° C.±2° C., 74% RH±5% RH, T0): 1.8% | Assay by HPLC (water and solvent free)(area) [2, 6]: 101.4% | Polymorphism by XRPD [2, 6]: Form II | Total impurities by HPLC [2, 6]: impurities: 1.1% | Water Content [2, 6]: 1.5% | Assay by HPLC (water and solvent free)(area) [2, 7]: 101.4% | Polymorphism by XRPD [2, 7]: Form II | Total impurities by HPLC [2, 7]: impurities: 1.1% | Water Content [2, 7]: 1.5% | Solubility [3, 8]: 19 µg/mL | Solubility ([3]; FaSSIF (pH of media 6.5), 2 h): 23 µg/mL | Solubility ([3]; FaSSIF (pH of media 6.5), 24 h): 6 µg/mL | Solubility [3, 9]: 64 µg/mL | Solubility ([3]; FeSSIF (pH of media 5.0), 2 h): 69 µg/mL | solubility at 24 h ([3]; Fed State Simulated Intestinal Fluid (FeSSIF), 37 °C, pH 5, fessif, thermodynamic from solid, FeSSIF (pH of media 5.0), 24 h): 57 µg/mL | Solubility ([3]; SGF (pH of media 1.2), 0.5 h): 2550 µg/mL | Solubility ([3]; SGF (pH of media 1.2), 2 h): 2591 µg/mL | Solubility ([3]; SGF (pH of media 1.2), 24 h): 3372 µg/mL | Solubility in SGF (in words) ([3]; SGF, comparison with HCl Salt Form 1): more soluble in SGF than HCl Salt Form 1 | Solubility ([3]; Water (pH of media 7.9), 0.5 h): 716 µg/mL | Solubility ([3]; Water (pH of media 7.9), 2 h): 696 µg/mL | Solubility ([3]; Water (pH of media 7.9), 24 h): 919 µg/mL | pH [3, 10]: 6.4 | pH [3, 11]: 6.4 | pH [3, 12]: 6.4 | pH [3, 13]: 4.9 | pH [3, 14]: 4.9 | pH [3, 15]: 4.9 | pH [3, 16]: 1.2 | pH [3, 17]: 1.4 | pH [3, 18]: 1.4 | pH [3, 19]: 4.9 | pH [3, 20]: 4.8 | pH [3, 21]: 6.0
SMILES: NCc1ccc(C(=O)Nc2ccncc2F)cc1-c1cccc(C(=O)Nc2ccc(SC[C@H]3CCOC3=O)cc2)c1 [HCl salt Form II]
Longer term stability (in words) ([2]; 25° C./60% RH and accelerated 40° C./75% RH): stable for up to 3 months even under accelerated conditions

Purity (area %) ([1]; Day 0, HPLC): 96.89 area % | Decrease in purity versus Day 0 ([1]; Day 7, 40° C./75% RH (open)): 3.0 area % | XRPD (crystal form) ([1]; Day 7, 40° C./75% RH (open)): No change | Purity (area %) ([1]; Day 7, 40° C./75% RH (open), HPLC): 93.87 area % | Decrease in purity versus Day 0 ([1]; Day 7, 60° C./capped): 1.9 area % | XRPD (crystal form) ([1]; Day 7, 60° C./capped): No change | Purity (area %) ([1]; Day 7, 60° C./capped, HPLC): 95.01 area % | Solubility [3, 8]: 14 µg/mL (≈ 24.5 µM) | Solubility ([3]; FaSSIF (pH of media 6.5), 2 h): 6 µg/mL (≈ 10.5 µM) | Solubility ([3]; FaSSIF (pH of media 6.5), 24 h): 1 µg/mL (≈ 1.75 µM) | Solubility [3, 9]: 183 µg/mL (≈ 321 µM) | Solubility ([3]; FeSSIF (pH of media 5.0), 2 h): 126 µg/mL (≈ 221 µM) | Solubility ([3]; FeSSIF (pH of media 5.0), 24 h): 59 µg/mL (≈ 103 µM) | Solubility ([3]; SGF (pH of media 1.2), 0.5 h): ~5000 µg/mL (≈ 8760 µM) | Solubility ([3]; SGF (pH of media 1.2), 2 h): ~5000 µg/mL (≈ 8760 µM) | Solubility ([3]; SGF (pH of media 1.2), 24 h): ~5000 µg/mL (≈ 8760 µM) | Solubility (mg/mL) ([3]; Water (pH of media 7.9), 0.5 h): <LOD | Solubility (mg/mL) ([3]; Water (pH of media 7.9), 2 h): <LOD | Solubility (mg/mL) ([3]; Water (pH of media 7.9), 24 h): <LOD | pH [3, 10]: 6.4 | pH [3, 11]: 6.4 | pH [3, 12]: 6.5 | pH [3, 13]: 5.0 | pH [3, 14]: 5.0 | pH [3, 15]: 5.0 | pH [3, 16]: 1.2 | pH [3, 17]: 1.4 | pH [3, 18]: 1.4 | pH [3, 19]: 7.9 | pH [3, 20]: 7.6 | pH [3, 21]: 8.7
SMILES: NCc1ccc(C(=O)Nc2ccncc2F)cc1-c1cccc(C(=O)Nc2ccc(SC[C@H]3CCOC3=O)cc2)c1 [Freebase Form I]

Purity (area %) ([1]; Day 0, HPLC, listed as HCI salt Form I): 97.62 area % | XRPD (crystal form) ([1]; Day 7, 40° C./75% RH (open)): No change | Purity (area %) ([1]; Day 7, 40° C./75% RH (open), HPLC, listed as HCI salt Form I): 97.62 area % | XRPD (crystal form) ([1]; Day 7, 60° C./capped): No change | Purity (area %) ([1]; Day 7, 60° C./capped, HPLC, listed as HCI salt Form I): 97.61 area %
SMILES: NCc1ccc(C(=O)Nc2ccncc2F)cc1-c1cccc(C(=O)Nc2ccc(SC[C@H]3CCOC3=O)cc2)c1 [HCl salt Form I]
